Experimental data published in patent US7161032B2, “Sulfonamide derivatives, insecticides for agricultural and horticultural use, and usage thereof” (Nihon Nohyaku Co., Ltd., priority 2002, dated 2007).

What was measured:
Assay type in all cases: in vivo
[1] = test system: Diamond Back Moth (Plutella xylostella); assay: Insecticidal effect on diamond back moth (Test Example 1): egg-bearing Chinese cabbage seedling immersed in 50 ppm liquid chemical
How it was run: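 Seedlings bearing 2-day-old eggs dipped about 30 s in 50 ppm formulated compound, air-dried, held at 25° C. Hatched larvae counted 6 days after immersion; mortality calculated and graded by criterion. Triplicate groups of 10 insects.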

[2] = test system: Smaller Tea Tortrix (Adoxophyes sp.); assay: Insecticidal effect on smaller tea tortrix (Test Example 3): tea leaves immersed in 50 ppm liquid chemical; conditions: smaller tea tortrix (Adoxophyes sp.) larvae, 8 days after inoculation, 25° C., humidity 70%
How it was run: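 Tea leaves dipped about 30 seconds in 50 ppm compound preparation, air-dried, then infested with larvae and held at 25° C and 70% humidity. Dead and alive counted 8 days after inoculation; triplicate groups of 10 insects.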

[3] = test system: Common Cutworm (Spodoptera litura); assay: Insecticidal effect on common cutworm (Test Example 2): cabbage leaf piece immersed in 50 ppm liquid chemical; conditions: common cutworm (Spodoptera litura) second-instar larvae, 8 days after inoculation, 25° C.
How it was run: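 Cabbage leaf pieces (cv. Shikidori) dipped ~30 s in formulated compound at 50 ppm and air-dried. Second-instar larvae added, kept at 25° C. Dead and alive counted at 8 days to give % mortality, scored against a criterion scale; three groups of 10 insects.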

CCNS(=O)(=O)CCCC(C)(C)NC(=O)c1c(I)cccc1C(=O)Nc1ccc(C(F)(C(F)(F)F)C(F)(F)F)cc1C [1-200]
A (Mortality 100%): Insecticidal effect (mortality grade), Test Example 1 [1] | Insecticidal effect (mortality grade), Test Example 3 [2] | Insecticidal effect (mortality grade), Test Example 2 [3]

CCN(CC)S(=O)(=O)CC(C)NC(=O)c1c(I)cccc1C(=O)Nc1ccc(C(F)(C(F)(F)F)C(F)(F)F)cc1C (stereo not drawn) [1-6]
A (Mortality 100%): Insecticidal effect (mortality grade), Test Example 1 [1] | Insecticidal effect (mortality grade), Test Example 3 [2] | Insecticidal effect (mortality grade), Test Example 2 [3]

Cc1cc(C(F)(C(F)(F)F)C(F)(F)F)ccc1NC(=O)c1cccc(I)c1C(=O)NC(C)CS(=O)(=O)NCc1cccc([N+](=O)[O-])c1 (stereo not drawn) [1-30]
A (Mortality 100%): Insecticidal effect (mortality grade), Test Example 1 [1] | Insecticidal effect (mortality grade), Test Example 3 [2] | Insecticidal effect (mortality grade), Test Example 2 [3]

Cc1cc(C(F)(C(F)(F)F)C(F)(F)F)ccc1NC(=O)c1cccc(I)c1C(=O)NC(C)CS(=O)(=O)NC(C)c1ccccc1 (stereo not drawn) [1-44]
A (Mortality 100%): Insecticidal effect (mortality grade), Test Example 1 [1] | Insecticidal effect (mortality grade), Test Example 3 [2] | Insecticidal effect (mortality grade), Test Example 2 [3]

CCSCCNS(=O)(=O)CC(C)(C)NC(=O)c1c(I)cccc1C(=O)Nc1ccc(C(F)(C(F)(F)F)C(F)(F)F)cc1C [1-84]
A (Mortality 100%): Insecticidal effect (mortality grade), Test Example 1 [1] | Insecticidal effect (mortality grade), Test Example 3 [2] | Insecticidal effect (mortality grade), Test Example 2 [3]

CCN(CC)S(=O)(=O)CC(C)NC(=O)c1c(I)cccc1C(=O)Nc1ccc(C(F)(F)C(F)(F)F)cc1C (stereo not drawn) [1-301]
A (Mortality 100%): Insecticidal effect (mortality grade), Test Example 1 [1] | Insecticidal effect (mortality grade), Test Example 3 [2] | Insecticidal effect (mortality grade), Test Example 2 [3]
